IC50 data for 1 compound are collected here from patent USRE43038E1, “Compound having antitumor activity and process for producing the same” (Riken, priority 2002, dated 2011).

Each structure is given as a SMILES string. Values after ≈ are worked out from the molar mass of the structure shown.

For the test, the system named is SH-SY5Y cells of human neuroblastoma. Kind of test: MTT growth inhibition of SH-SY5Y human neuroblastoma cells. The format is cell-based. Particulars: DMEM with 5% fetal bovine serum, 48 hours culture at 37° C., absorbance at 570 nm, read-out: 50% growth-inhibiting concentration. On the procedure: SH-SY5Y cells of human neuroblastoma were cultured in DMEM medium (Dulbecco's modified Eagle medium) (containing 5% fetal bovine serum). Compound 1 of the present invention in a series of dilutions was added thereto and cultured at 37° C. under a 5% carbon dioxide atmosphere for 48 hours, followed by adding a MTT (3-(4,5-dimethyl-thiazol-2-yl)-2,5-diphenyl tetrazoliumbromide) reagent and further culturing for 2 to 4 hours. Absorbance at 570 nm was then measured to calculate the survival ratio.

For the compound `CC=C(/C=C(C)/C=C/CC/C=C(\C)C(=O)C12OC1C(C)(O)NC2=O)C(=O)OC(C)(C)C` (stereo not shown) [Compound 1, (3E,5E,9E)-tert-butyl-2-ethylidene-11-(4-hydroxy-4-methyl-2-oxo-6-oxa-3-aza-bicyclo[3.1.0]hex-1-yl)-4,10-dimethyl-11-oxounde ca-3,5,9-trienoate], the IC50 was determined as 0.4 µg/mL (≈ 0.927 µM).
